The record followed here is patent publication US20200405696A1, “INHIBITORS OF INDOLEAMINE 2,3-DIOXYGENASE AND/OR TRYPTOPHAN 2,3-DIOXYGENASE” (IDORSIA PHARMACEUTICALS LTD, priority 2018, published 2020).

In experiment [1] the target is T1, Recombinant full-length human IDO1 (Homo sapiens, UniProt P14902).
T1 construct: Recombinant full-length human IDO1 with a N-terminal hexahistidine tag; hexahistidine (His6) (N); made in house; host or cells: E. coli
Description: IDO1 enzymatic assay (NFK quantified by LCMS). The class given is biochemical. Conditions: 2 nM enzyme, 5 μM L-tryptophan, pH6.5, 30 minutes pre-incubation at RT; mean values when measured multiple times; read-out: hIDO activity (IC50 in nM). In outline:
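His-tagged human IDO1 (2 nM) in pH 6.5 phosphate buffer with ascorbate, methylene blue and catalase was preincubated with compound (10 μM–0.5 nM, 0.6% DMSO) for 30 min at RT. The reaction then ran with 5 μM L-Trp for 30 min. NFK was measured by LCMS against a d5-Trp standard, and IC50 was obtained by four-parameter fit.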

The target of experiment [2] is T2, Recombinant human TDO comprising amino acids 19-407 (Homo sapiens, UniProt P48775).
T2 construct: Recombinant human TDO comprising amino acids 19-407 with a N-terminal hexahistidine tag; hexahistidine (His6) (N); made in house; host or cells: E. coli
Description: TDO2 enzymatic assay (NFK quantified by LCMS). As to conditions: 15 nM enzyme, 200 μM L-tryptophan, pH7, 30 minutes pre-incubation at RT; mean values when measured multiple times; read-out: hTDO activity (IC50 in nM). The class given is biochemical. In outline: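 NFK formed over 30 min at RT from 200 μM L-tryptophan was measured by LCMS, normalized to d5-tryptophan, after compound (0.5 nM–10 μM, duplicates, 0.6% DMSO) was preincubated 30 min with 15 nM recombinant His-tagged TDO 19-407 in phosphate buffer pH 7. IC50 from four-parameter logistic fit; repeats averaged.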

T1 sequence (P14902 whole entry): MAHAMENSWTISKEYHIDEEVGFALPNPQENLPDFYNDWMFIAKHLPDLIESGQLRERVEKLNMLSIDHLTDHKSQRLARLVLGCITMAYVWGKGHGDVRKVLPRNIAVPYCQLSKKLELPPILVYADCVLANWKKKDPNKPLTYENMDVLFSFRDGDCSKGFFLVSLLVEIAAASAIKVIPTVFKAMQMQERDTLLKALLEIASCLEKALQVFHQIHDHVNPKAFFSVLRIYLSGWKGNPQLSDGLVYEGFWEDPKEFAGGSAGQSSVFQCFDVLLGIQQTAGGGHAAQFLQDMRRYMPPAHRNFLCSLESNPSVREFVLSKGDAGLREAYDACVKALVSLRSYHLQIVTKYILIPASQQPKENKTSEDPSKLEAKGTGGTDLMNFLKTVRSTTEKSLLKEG
T2 sequence (P48775 19-406 limits assumed): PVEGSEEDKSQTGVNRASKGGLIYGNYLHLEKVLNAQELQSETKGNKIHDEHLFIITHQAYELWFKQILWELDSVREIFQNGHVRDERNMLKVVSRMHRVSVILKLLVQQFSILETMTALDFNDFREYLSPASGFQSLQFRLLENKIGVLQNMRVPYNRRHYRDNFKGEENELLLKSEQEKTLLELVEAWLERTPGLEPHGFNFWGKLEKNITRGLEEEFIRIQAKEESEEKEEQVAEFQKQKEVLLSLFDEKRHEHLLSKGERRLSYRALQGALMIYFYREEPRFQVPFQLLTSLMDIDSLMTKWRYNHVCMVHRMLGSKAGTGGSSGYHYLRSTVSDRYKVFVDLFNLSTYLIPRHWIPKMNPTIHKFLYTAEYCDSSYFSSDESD

Turning to `CC(C)(O)CCOc1ccc(-n2cc(C(O)c3c(-c4ccccc4)sc4cncn34)nn2)cc1Cl` (racemic) [Example 268, rac-4-(2-Chloro-4-{4-[hydroxy-(2-phenyl-imidazo[5,1-b]thiazol-3-yl)-methyl]-[1,2,3]triazol-1-yl}-phenoxy)-2-methyl-butan-2-ol], the IC50 in experiment [1] is 210 nM; in experiment [2] it was over 10200 nM.
The matching figures for `COc1ccc(-n2cc(C(O)c3c(C(C)(F)F)sc4cncn34)nn2)cc1` (racemic) [Example 257, rac-[2-(1,1-Difluoro-ethyl)-imidazo[5,1-b]thiazol-3-yl]-[1-(4-methoxy-phenyl)-1H-[1,2,3]triazol-4-yl]-methanol]: 17.5 nM and over 10200 nM.
For `CCNS(=O)(=O)c1ccc(-n2cc(C(O)c3c(CC)sc4cncn34)nn2)cc1` (racemic) [Example 244, rac-N-Ethyl-4-{4-[(2-ethyl-imidazo[5,1-b]thiazol-3-yl)-hydroxy-methyl]-[1,2,3]triazol-1-yl}-benzenesulfonamide] the same measures were 47.2 nM and over 10200 nM.
With `OC(c1cn(-c2ccc(OCc3ccccc3)c(F)c2)nn1)c1c([C@@H]2C[C@H]2F)sc2cncn12` (relative stereo) [Example 322, [1-(4-Benzyloxy-3-fluoro-phenyl)-1H-[1,2,3]triazol-4-yl]-[2-(trans-2-fluoro-cyclopropyl)-imidazo[5,1-b]thiazol-3-yl]-methanol], the IC50 is 16.2 nM in experiment [1] and over 10200 nM in experiment [2].
The matching figures for `OC(c1cccc(-c2ccccc2)c1)c1c(C2CC2)sc2cncn12` (racemic) [Example 153, rac-Biphenyl-3-yl-(2-cyclopropyl-imidazo[5,1-b]thiazol-3-yl)-methanol]: 2320 nM and over 10200 nM.
For `OC(c1cnn(-c2cccnc2)c1)c1c(C2CC2)sc2cncn12` (racemic) [Example 260, rac-(2-Cyclopropyl-imidazo[5,1-b]thiazol-3-yl)-(1-pyridin-3-yl-1H-pyrazol-4-yl)-methanol] the same measures were 43.2 nM and 6510 nM.
For `COc1ccc(-n2cc(C(O)c3c(C4CC4)sc4cncn34)cn2)cn1` (racemic) [Example 223, rac-(2-Cyclopropyl-imidazo[5,1-b]thiazol-3-yl)-[1-(6-methoxy-pyridin-3-yl)-1H-pyrazol-4-yl]-methanol] the same measures were 164 nM and over 10200 nM.
In the case of `Oc1ccc(-n2cc(C(O)c3c(-c4ccccc4)sc4cncn34)nn2)cc1Cl` (racemic) [Example 264, rac-2-Chloro-4-{4-[hydroxy-(2-phenyl-imidazo[5,1-b]thiazol-3-yl)-methyl]-[1,2,3]triazol-1-yl}-phenol], the IC50 in experiment [1] came out at 93.9 nM; in experiment [2], 5890 nM.
As to `CCc1sc2cncn2c1C(O)c1cn(-c2ccc(S(=O)(=O)N(CC)CC)cc2)nn1` (racemic) [Example 243, rac-N,N-Diethyl-4-{4-[(2-ethyl-imidazo[5,1-b]thiazol-3-yl)-hydroxy-methyl]-[1,2,3]triazol-1-yl}-benzenesulfonamide], the IC50 in experiment [1] is 101 nM; in experiment [2], over 10200 nM.
The matching figures for `Oc1cc(Cl)ccc1-n1cc(C(O)c2c(C3CC3)sc3cncn23)nn1` (racemic) [Example 221, rac-5-Chloro-2-{4-[(2-cyclopropyl-imidazo[5,1-b]thiazol-3-yl)-hydroxy-methyl]-[1,2,3]triazol-1-yl}-phenol]: 90.2 nM and over 10200 nM.
For `CC1(COc2ccc(-n3cc(C(O)c4c(C5CC5)sc5cncn45)nn3)cc2)COC1` (racemic) [Example 144, rac-(2-Cyclopropyl-imidazo[5,1-b]thiazol-3-yl)-{1-[4-(3-methyl-oxetan-3-ylmethoxy)-phenyl]-1H-[1,2,3]triazol-4-yl}-methanol] the same measures were 11.2 nM and over 10200 nM.
For `COc1ccc(-n2cc(C(O)c3c(C4CC4)sc4cncn34)nn2)cc1C#N` (racemic) [Example 135, rac-5-{4-[(2-Cyclopropyl-imidazo[5,1-b]thiazol-3-yl)-hydroxy-methyl]-[1,2,3]triazol-1-yl}-2-methoxy-benzonitrile] the same measures were 14 nM and over 10200 nM.
As to `COc1ccc(-n2nnc(C(O)c3c(C4CC4)sc4cncn34)c2C)c(C)c1` (racemic) [Example 326, rac-(2-Cyclopropyl-imidazo[5,1-b]thiazol-3-yl)-[1-(4-methoxy-2-methyl-phenyl)-5-methyl-1H-[1,2,3]triazol-4-yl]-methanol], the IC50 in experiment [1] worked out at 16.9 nM; in experiment [2], 9520 nM.
For `COc1ccc(-n2nnc(C(O)c3c(C4CC4)sc4cncn34)c2C)cc1Cl` (racemic) [Example 295, rac-[1-(3-Chloro-4-methoxy-phenyl)-5-methyl-1H-[1,2,3]triazol-4-yl]-(2-cyclopropyl-imidazo[5,1-b]thiazol-3-yl)-methanol] the same measures were 6.63 nM and 8840 nM.
For `N#Cc1ccc(-n2cc(C(O)c3c(C4CC4)sc4cncn34)nn2)cc1O` (racemic) [Example 233, rac-4-{4-[(2-Cyclopropyl-imidazo[5,1-b]thiazol-3-yl)-hydroxy-methyl]-[1,2,3]triazol-1-yl}-2-hydroxy-benzonitrile] the same measures were 20.3 nM and over 10200 nM.
For `Oc1cc(-n2cc(C(O)c3c(C4CC4)sc4cncn34)nn2)ccc1Cl` (racemic) [Example 217, rac-2-Chloro-5-{4-[(2-cyclopropyl-imidazo[5,1-b]thiazol-3-yl)-hydroxy-methyl]-[1,2,3]triazol-1-yl}-phenol] the same measures were 9.6 nM and over 10200 nM.
`Oc1c(F)cc(-n2cc(C(O)c3c(C4CC4)sc4cncn34)nn2)cc1F` (racemic) [Example 149, rac-4-{4-[(2-Cyclopropyl-imidazo[5,1-b]thiazol-3-yl)-hydroxy-methyl]-[1,2,3]triazol-1-yl}-2,6-difluoro-phenol]: the IC50 in experiment [1] is 3.8 nM; in experiment [2], over 10200 nM.
For `CCc1sc2cncn2c1C(O)c1cn(-c2ccc(C(=O)NCCCOC)cc2)nn1` (racemic) [Example 126, rac-4-{4-[(2-Ethyl-imidazo[5,1-b]thiazol-3-yl)-hydroxy-methyl]-[1,2,3]triazol-1-yl}-N-(3-methoxy-propyl)-benzamide] the same measures were 20.1 nM and over 10200 nM.
Turning to `CC=Cc1sc2cncn2c1C(O)c1cn(-c2ccc(OC)cc2)nn1` (racemic) [Example 263, rac-[1-(4-Methoxy-phenyl)-1H-[1,2,3]triazol-4-yl]-[((E)-2-(prop-1-enyl))-imidazo[5,1-b]thiazol-3-yl]-methanol], the IC50 in experiment [1] stood at 20.5 nM; in experiment [2], 830 nM.
For `Cc1sc2cncn2c1C(O)c1cn(-c2cccc(C#N)c2)nn1` (racemic) [Example 60, rac-3-{4-[Hydroxy-(2-methyl-imidazo[5,1-b]thiazol-3-yl)-methyl]-[1,2,3]triazol-1-yl}-benzonitrile] the same measures were 294 nM and over 10200 nM.
The matching figures for `CCc1sc2cncn2c1[C@@H](O)c1cn(-c2ccc(NC(=O)OC)cc2)nn1` [Example 49a, (4-{4-[(R)-(2-Ethyl-imidazo[5,1-b]thiazol-3-yl)-hydroxy-methyl]-[1,2,3]triazol-1-yl}-phenyl)-carbamic acid methyl ester]: 2.7 nM and 1040 nM.
